Measured values as given in ChEMBL document CHEMBL1201862, “PubChem BioAssay data set” (2004).
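96-well plates; 48 h exposure; 5 concentrations. Endpoints by linear interpolation between flanking doses. Not reached: highest tested concentration assigned. GI50 marks 50% less growth.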 Active and inactive are the calls of the source. Rule as the data show it: active = GI50 up to about 1.1 µM and inactive = higher.

What was measured:
Assay in all cases: DTP human tumour cell line panel, 48 h
RXF 631 = system: RXF 631
HCC 2998 = system: HCC 2998
DLD-1 = system: DLD-1
SK-MEL-2 = system: SK-MEL-2
SN12C = system: SN12C
RPMI-8226 = system: RPMI-8226
MOLT-4 = system: MOLT-4
K562 = system: K562
ACHN = system: ACHN
TK-10 = system: TK-10
OVCAR-4 = system: OVCAR-4
HL-60 = system: HL-60
NCI-H460 = system: NCI-H460
U-251 = system: U-251
SNB-75 = system: SNB-75
DMS-273 = system: DMS-273
SNB-19 = system: SNB-19
Malme-3M = system: Malme-3M
HCT-15 = system: HCT-15
SR = system: SR
COLO 205 = system: COLO 205
UACC-62 = system: UACC-62
LXFL 529 = system: LXFL 529
EKVX = system: EKVX
SK-MEL-28 = system: SK-MEL-28
NCI-H23 = system: NCI-H23
UACC-257 = system: UACC-257
CCRF-CEM = system: CCRF-CEM
A549 = system: A549
M19-MEL = system: M19-MEL
HT-29 = system: HT-29
UO-31 = system: UO-31
A498 = system: A498
LOX IMVI = system: LOX IMVI
IGROV-1 = system: IGROV-1
SF-539 = system: SF-539
786-0 = system: 786-0
HOP-62 = system: HOP-62
XF498 = system: XF498
SW-620 = system: SW-620
SK-MEL-5 = system: SK-MEL-5
CAKI-1 = system: CAKI-1
OVCAR-8 = system: OVCAR-8
KM12 = system: KM12
SF-295 = system: SF-295
HCT-116 = system: HCT-116
OVCAR-3 = system: OVCAR-3
M14 = system: M14
KM-20L2 = system: KM-20L2
RXF 393 = system: RXF 393
OVCAR-5 = system: OVCAR-5
NCI-H226 = system: NCI-H226
DMS-114 = system: DMS-114
SK-OV-3 = system: SK-OV-3
SNB-78 = system: SNB-78
NCI-H522 = system: NCI-H522
HOP-18 = system: HOP-18
SF-268 = system: SF-268
HOP-92 = system: HOP-92

Measured: GI50

Oc1cc(-c2ccco2)nc2cc3c(cc12)OCO3
38.3 µM: HCT-15
inactive: RXF 631 52.2 µM | HCC 2998 > 100 µM | DLD-1 39 µM | SK-MEL-2 57.8 µM | SN12C 55.5 µM | RPMI-8226 40.1 µM | MOLT-4 33.7 µM | K562 6.61 µM | ACHN 91 µM | TK-10 72.6 µM | OVCAR-4 34.1 µM | HL-60 27.7 µM | NCI-H460 34.3 µM | U-251 > 100 µM | SNB-75 12.5 µM | DMS-273 20 µM | SNB-19 27.1 µM | Malme-3M 42.4 µM | SR 54.3 µM | COLO 205 17.6 µM | UACC-62 27.9 µM | LXFL 529 58.9 µM | EKVX > 100 µM | SK-MEL-28 > 100 µM | NCI-H23 80.9 µM | UACC-257 60 µM | CCRF-CEM 38.4 µM | A549 52.8 µM | M19-MEL 44.9 µM | HT-29 43.3 µM | UO-31 46.2 µM | A498 35.6 µM | LOX IMVI 50.6 µM | IGROV-1 29.6 µM | SF-539 25.7 µM | 786-0 26.5 µM | HOP-62 10.9 µM | XF498 39.8 µM | SW-620 25.9 µM

CC(=O)O[C@H]1CC[C@@]2(C)C(=CC[C@@H]3C2CC[C@]2(C)Nc4[nH]ncc4CC32)C1 (some centres undefined)
inactive: RXF 631 16.7 µM | HCC 2998 > 100 µM | DLD-1 32 µM | SK-MEL-2 28.2 µM | RPMI-8226 25.5 µM | MOLT-4 15.4 µM | K562 20.7 µM | SK-MEL-5 19.1 µM | ACHN > 100 µM | TK-10 > 100 µM | OVCAR-4 18.5 µM | CAKI-1 > 100 µM | HL-60 20.5 µM | OVCAR-8 29.9 µM | KM12 16.6 µM | NCI-H460 17.3 µM | U-251 15 µM | SNB-75 85.9 µM | SF-295 42.2 µM | HCT-116 16.4 µM | OVCAR-3 19.2 µM | M14 19.7 µM | KM-20L2 27.9 µM | RXF 393 30.4 µM | DMS-273 16.9 µM | OVCAR-5 > 100 µM | NCI-H226 > 100 µM | Malme-3M 25.6 µM | UACC-62 26.1 µM | LXFL 529 19.9 µM | EKVX 29.8 µM | SK-MEL-28 32.2 µM | NCI-H23 27.5 µM | UACC-257 16.6 µM | CCRF-CEM 18.2 µM | A549 32.2 µM | M19-MEL 24.7 µM | HT-29 16.9 µM | UO-31 87.7 µM | A498 > 100 µM | IGROV-1 75.5 µM | SF-539 20 µM | 786-0 > 100 µM | HOP-62 > 100 µM | XF498 4.1 µM | DMS-114 16.5 µM | SW-620 34.8 µM | SK-OV-3 > 100 µM | SNB-78 42.7 µM
17.5 µM: HCT-15

N#CCC(=O)N/N=C1/C(=O)NC(=O)C(=O)C1c1nc2ccccc2s1 (centres undefined)
inactive: RXF 631 > 100 µM | HCC 2998 > 100 µM | DLD-1 > 100 µM | SK-MEL-2 > 100 µM | SN12C > 100 µM | RPMI-8226 > 100 µM | MOLT-4 > 100 µM | K562 > 100 µM | SK-MEL-5 > 100 µM | ACHN > 100 µM | TK-10 > 100 µM | OVCAR-4 > 100 µM | CAKI-1 > 100 µM | OVCAR-8 > 100 µM | U-251 > 100 µM | SNB-75 > 100 µM | SF-295 > 100 µM | HCT-116 > 100 µM | OVCAR-3 > 100 µM | M14 > 100 µM | KM-20L2 > 100 µM | RXF 393 > 100 µM | DMS-273 > 100 µM | NCI-H522 > 100 µM | OVCAR-5 > 100 µM | NCI-H226 50.1 µM | SNB-19 > 100 µM | HOP-18 > 100 µM | Malme-3M > 100 µM | SR 71.8 µM | SF-268 > 100 µM | COLO 205 > 100 µM | UACC-62 > 100 µM | LXFL 529 > 100 µM | EKVX > 100 µM | SK-MEL-28 > 100 µM | NCI-H23 > 100 µM | UACC-257 > 100 µM | CCRF-CEM > 100 µM | A549 > 100 µM | HOP-92 67.5 µM | M19-MEL > 100 µM | HT-29 > 100 µM | UO-31 > 100 µM | A498 > 100 µM | LOX IMVI > 100 µM | IGROV-1 > 100 µM | SF-539 > 100 µM | 786-0 > 100 µM | HOP-62 > 100 µM | DMS-114 > 100 µM | SW-620 > 100 µM | SK-OV-3 > 100 µM | SNB-78 > 100 µM
> 100 µM: HCT-15

COC(=O)C(=O)C(C(=O)C(=O)Nc1cc([N+](=O)[O-])ccc1[N+](=O)[O-])c1nc2ccc(C(=O)c3ccccc3)cc2nc1O (centres undefined)
inactive: RXF 631 49.3 µM | HCC 2998 > 100 µM | DLD-1 52.2 µM | SK-MEL-2 37.2 µM | SN12C 44.2 µM | RPMI-8226 20.1 µM | MOLT-4 18.1 µM | K562 21.3 µM | SK-MEL-5 18.3 µM | ACHN 34.8 µM | OVCAR-4 49.9 µM | CAKI-1 19.3 µM | OVCAR-8 26.9 µM | KM12 28.9 µM | NCI-H460 35.4 µM | U-251 33.4 µM | SF-295 31 µM | HCT-116 40.6 µM | OVCAR-3 39.2 µM | M14 33.1 µM | DMS-273 22.4 µM | NCI-H522 26.7 µM | OVCAR-5 20.7 µM | NCI-H226 25.4 µM | SNB-19 50.4 µM | HOP-18 8.02 µM | Malme-3M 61.4 µM | SR 21.7 µM | SF-268 47.6 µM | COLO 205 32.6 µM | LXFL 529 23.4 µM | EKVX 39.3 µM | NCI-H23 25.2 µM | UACC-257 34.3 µM | CCRF-CEM 25.2 µM | A549 43.8 µM | M19-MEL 28.4 µM | HT-29 34 µM | UO-31 17.4 µM | A498 20.9 µM | LOX IMVI 19.9 µM | IGROV-1 33.6 µM | SF-539 35.2 µM | 786-0 95.3 µM | HOP-62 44.5 µM | XF498 3.36 µM | DMS-114 23.2 µM | SW-620 28.4 µM | SK-OV-3 34.2 µM | SNB-78 19.2 µM
56.5 µM: HCT-15

COc1cc2c(c(OC)c1OC)-c1ccc(SC)c(=O)cc1C(CC(=O)Oc1ccc([N+](=O)[O-])cc1)C2 (centres undefined)
0.78 µM: HCT-15
active: RXF 631 < 0.01 µM | HCC 2998 0.119 µM | SK-MEL-2 0.336 µM | MOLT-4 0.113 µM | K562 < 0.0444 µM | SK-MEL-5 0.0726 µM | CAKI-1 0.207 µM | HL-60 0.226 µM | SNB-75 0.286 µM | OVCAR-3 0.0538 µM | M14 0.0607 µM | KM-20L2 0.0476 µM | RXF 393 0.0331 µM | NCI-H522 0.0551 µM | NCI-H226 0.128 µM | SF-268 0.137 µM | SK-MEL-28 0.19 µM | NCI-H23 0.132 µM | UACC-257 0.486 µM | CCRF-CEM 0.0792 µM | A549 0.123 µM | HOP-92 0.762 µM | M19-MEL 0.18 µM | A498 0.0469 µM | IGROV-1 0.344 µM | XF498 0.0873 µM | DMS-114 0.0902 µM | SK-OV-3 0.0207 µM | SNB-78 0.044 µM
inactive: TK-10 4.8 µM | OVCAR-4 3.85 µM | OVCAR-5 6.1 µM | SNB-19 1.34 µM | HOP-18 > 33.5 µM | EKVX 7.29 µM | UO-31 1.95 µM | HOP-62 4.44 µM
